Assay results as given in ChEMBL document CHEMBL3120150, “Syntheses and structure-activity relationships for some triazolyl p38α MAPK inhibitors” (Bioorg Med Chem Lett, 2014).
Activity calls are given as the source filed them. The rule behind the calls is not given here.

What follows are molecules tested on HUVEC (assay: Inhibition of TNFalpha-induced IL-6 gene expression in HUVEC at 10 uM). Details: Homo sapiens.
Type: functional, cell-based

SMILES	inhibition
Cn1cnc(-c2ccc(F)cc2)c1-c1ccncc1	Active
Cn1c(-c2cn([C@H]3CCNC[C@@H]3F)nn2)nc(-c2ccc(F)cc2)c1-c1ccncc1	Active
C[S+]([O-])c1ccc(-c2nc(-c3ccc(F)cc3)c(-c3ccncc3)[nH]2)cc1 (centres undefined)	Active
Cn1c(-c2cn([C@@H]3[C@@H](O)[C@H](O)[C@@H](CO)O[C@@H]3O)nn2)nc(-c2ccc(F)cc2)c1-c1ccncc1	Active

These molecules were tested on HUVEC (assay: Inhibition of TNFalpha-induced COX2 gene expression in HUVEC at 10 uM). Details: Homo sapiens.
Type: functional, cell-based

SMILES	inhibition
Cn1cnc(-c2ccc(F)cc2)c1-c1ccncc1	Active
Cn1c(-c2cn([C@H]3CCNC[C@@H]3F)nn2)nc(-c2ccc(F)cc2)c1-c1ccncc1	Active
C[S+]([O-])c1ccc(-c2nc(-c3ccc(F)cc3)c(-c3ccncc3)[nH]2)cc1 (centres undefined)	Active
Cn1c(-c2cn([C@@H]3[C@@H](O)[C@H](O)[C@@H](CO)O[C@@H]3O)nn2)nc(-c2ccc(F)cc2)c1-c1ccncc1	Active

What follows are molecules tested against Mitogen-activated protein kinase 14 (Homo sapiens, UniProt Q16539) (assay: Inhibition of p38a MAPK (unknown origin) by radiometric assay). Details: not given.
Sequence of Mitogen-activated protein kinase 14 (Q16539 whole entry): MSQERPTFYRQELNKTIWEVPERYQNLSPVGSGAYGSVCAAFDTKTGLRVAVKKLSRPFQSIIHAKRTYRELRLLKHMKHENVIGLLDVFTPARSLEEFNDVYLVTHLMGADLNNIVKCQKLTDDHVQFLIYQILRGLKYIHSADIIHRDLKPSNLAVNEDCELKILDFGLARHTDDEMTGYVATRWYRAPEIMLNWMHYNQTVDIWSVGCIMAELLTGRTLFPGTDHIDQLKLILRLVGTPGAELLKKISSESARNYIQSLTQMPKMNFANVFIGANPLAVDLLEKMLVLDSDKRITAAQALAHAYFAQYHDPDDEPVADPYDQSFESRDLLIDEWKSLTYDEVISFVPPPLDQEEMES

SMILES	IC50
Cn1c(-c2cn(C(C)(C)C(=O)O)nn2)nc(-c2ccc(F)cc2)c1-c1ccncc1	1490 nM
Oc1ccccc1-n1cc(-c2nc(-c3ccc(F)cc3)c(-c3ccncc3)o2)nn1	2170 nM
O=C(O)c1ccccc1-n1cc(-c2nc(-c3ccc(F)cc3)c(-c3ccncc3)o2)nn1	6510 nM
O=C(O)[C@H]1OC(n2cc(-c3nc(-c4ccc(F)cc4)c(-c4ccncc4)o3)nn2)[C@H](O)[C@@H](O)[C@@H]1O (some centres undefined)	1170 nM
OCCOCCOCCOCCOCCOCCOCCOCCn1cc(-c2nc(-c3ccc(F)cc3)c(-c3ccncc3)o2)nn1	23500 nM
Cn1c(-c2cn(CCOCCOCCOCCO)nn2)nc(-c2ccc(F)cc2)c1-c1ccncc1	11200 nM
C[C@H](Nc1nccc(-c2c(-c3ccc(F)cc3)nc3nc(N)ccn23)n1)c1ccccc1	6 nM
C#Cc1nc(-c2ccc(F)cc2)c(-c2ccncc2)n1C	730 nM
OCCOCCOCCOCCn1cc(-c2nc(-c3ccc(F)cc3)c(-c3ccncc3)o2)nn1	12500 nM
Cn1c(-c2cn(-c3cccc(C(=O)O)c3)nn2)nc(-c2ccc(F)cc2)c1-c1ccncc1 [listing 1 of 2 here]	91 nM
O=C(O)Cn1cc(-c2nc(-c3ccc(F)cc3)c(-c3ccncc3)o2)nn1	3200 nM
CC(=O)OC[C@H]1O[C@H](OC(C)=O)[C@H](n2cc(-c3nc(-c4ccc(F)cc4)c(-c4ccncc4)n3C)nn2)[C@@H](OC(C)=O)[C@@H]1OC(C)=O	> 100000 nM
Cn1c(-c2cn(-c3ccccc3O)nn2)nc(-c2ccc(F)cc2)c1-c1ccncc1	1590 nM
Cn1cnc(-c2ccc(F)cc2)c1-c1ccncc1	430 nM
Cn1c(-c2c[nH]nn2)nc(-c2ccc(F)cc2)c1-c1ccncc1	140 nM
Cn1c(-c2cn(CC(=O)O)nn2)nc(-c2ccc(F)cc2)c1-c1ccncc1 [listing 1 of 2 here]	430 nM
Cn1c(-c2cn([C@H]3CCNC[C@@H]3F)nn2)nc(-c2ccc(F)cc2)c1-c1ccncc1	96 nM
CCOC(=O)Cn1nncc1-c1nc(-c2ccc(F)cc2)c(-c2ccncc2)n1C	56000 nM
Cn1c(-c2cn(CCP(=O)(O)O)nn2)nc(-c2ccc(F)cc2)c1-c1ccncc1	350 nM
Cn1c(-c2cn(CC(=O)N3CCN(CCO)CC3)nn2)nc(-c2ccc(F)cc2)c1-c1ccncc1	3800 nM
Cn1c(-c2cn(CC(=O)O)nn2)nc(-c2ccc(F)cc2)c1-c1ccncc1 [listing 2 of 2 here]	740 nM
COC(=O)c1cccc(-n2cc(-c3nc(-c4ccc(F)cc4)c(-c4ccncc4)n3C)nn2)c1	990 nM
CN(C)c1ccc(-n2cc(-c3nc(-c4ccc(F)cc4)c(-c4ccncc4)n3C)nn2)cc1	1400 nM
Cn1c(-c2cn(CC(=O)NCCO)nn2)nc(-c2ccc(F)cc2)c1-c1ccncc1	890 nM
Cn1c(-c2cn(C[C@H]3O[C@@H](O)[C@H](O)[C@@H](O)[C@@H]3O)nn2)nc(-c2ccc(F)cc2)c1-c1ccncc1	400 nM
O[C@@H]1[C@@H](O)[C@H](O)O[C@H](Cn2cc(-c3nc(-c4ccc(F)cc4)c(-c4ccncc4)o3)nn2)[C@H]1O	5730 nM

SMILES	IC50
CN(C)c1ccc(-n2cc(-c3nc(-c4ccc(F)cc4)c(-c4ccncc4)o3)nn2)cc1	19500 nM
Cn1c(-c2cn(-c3ccc(C(=O)O)cc3)nn2)nc(-c2ccc(F)cc2)c1-c1ccncc1	140 nM
CCOC(=O)Cn1cc(-c2nc(-c3ccc(F)cc3)c(-c3ccncc3)n2C)nn1	1870 nM
Cn1c(-c2cn([C@@H](CC(=O)O)C(=O)O)nn2)nc(-c2ccc(F)cc2)c1-c1ccncc1	2300 nM
OC[C@H]1O[C@H](O)[C@H](n2cc(-c3nc(-c4ccc(F)cc4)c(-c4ccncc4)o3)nn2)[C@@H](O)[C@@H]1O	1190 nM
C[C@@H](C(=O)O)n1cc(-c2nc(-c3ccc(F)cc3)c(-c3ccncc3)n2C)nn1	1440 nM
CC(=O)OC[C@H]1O[C@H](OC(C)=O)[C@H](n2cc(-c3nc(-c4ccc(F)cc4)c(-c4ccncc4)o3)nn2)[C@@H](OC(C)=O)[C@@H]1OC(C)=O	> 100000 nM
Fc1ccc(-c2nc(-c3c[nH]nn3)oc2-c2ccncc2)cc1	380 nM
O=C(O)c1ccc(-n2cc(-c3nc(-c4ccc(F)cc4)c(-c4ccncc4)o3)nn2)cc1	190 nM
Cn1c(-c2cn(CCO)nn2)nc(-c2ccc(F)cc2)c1-c1ccncc1	500 nM
Cn1c(-c2cn([C@@H]3[C@@H](O)[C@H](O)[C@@H](CO)O[C@@H]3O)nn2)nc(-c2ccc(F)cc2)c1-c1ccncc1	710 nM
C#Cc1nc(-c2ccc(F)cc2)c(-c2ccncc2)o1	1790 nM
O=C(c1ccc(-n2cc(-c3nc(-c4ccc(F)cc4)c(-c4ccncc4)o3)nn2)cc1)N1CCN(CCO)CC1	2400 nM
Cn1c(-c2cn(CCOP(=O)(O)O)nn2)nc(-c2ccc(F)cc2)c1-c1ccncc1	250 nM
Fc1ccc(-c2nc(-c3cn(Cc4ccccc4)nn3)oc2-c2ccncc2)cc1	158000 nM
Cn1c(-c2cn(-c3cccc(C(=O)O)c3)nn2)nc(-c2ccc(F)cc2)c1-c1ccncc1 [listing 2 of 2 here]	185 nM
Cn1c(-c2cn(C3O[C@H](C(=O)O)[C@@H](O)[C@H](O)[C@H]3O)nn2)nc(-c2ccc(F)cc2)c1-c1ccncc1 (some centres undefined)	590 nM
Cn1c(C#CCO)nc(-c2ccc(F)cc2)c1-c1ccncc1	460 nM
Cn1c(-c2cn(CCOCCOCCOCCN)nn2)nc(-c2ccc(F)cc2)c1-c1ccncc1	5180 nM
Cn1c(-c2cn(-c3cccc(C(=O)NCCCO)c3)nn2)nc(-c2ccc(F)cc2)c1-c1ccncc1	290 nM
CCOP(=O)(CCn1cc(-c2nc(-c3ccc(F)cc3)c(-c3ccncc3)n2C)nn1)OCC	> 100000 nM
Cn1c(-c2cnnn2CC(=O)O)nc(-c2ccc(F)cc2)c1-c1ccncc1	4200 nM
Cn1c(-c2cn(CCOCCOCCOCCOCCOCCOCCOCCO)nn2)nc(-c2ccc(F)cc2)c1-c1ccncc1	11600 nM
Cn1c(-c2cn(-c3ccccc3C(=O)O)nn2)nc(-c2ccc(F)cc2)c1-c1ccncc1	1530 nM
C[C@@H](C(=O)O)n1cc(-c2nc(-c3ccc(F)cc3)c(-c3ccncc3)o2)nn1	11400 nM
